Key:
[1] = test system: P. aeruginosa MB9798 (efflux+, IMP-1 plasmid); settings: for MB9798 MITC95 P. aeruginosa uM Efflux WT: efflux + (MB9798) strain, imipenem at 2 μg/mL, in the presence of a class A, C, D serine β-lactamase inhibitor closely related to relebactam; for Efflux ratio: fold difference between efflux+ (MB9798) and efflux− (MB9799) strains
Source text: (§1) The strain background is Pseudomonas aeruginosa PAO1. A wild-type (M135919) and an isogenic strain in which multiple efflux pumps have been disrupted genetically were used. The MBL IMP-1, obtained from a clinical isolate was introduced into the strain pair by the following process:
(§2) The plasmid DNA was transformed into parental MB5919 (oprD+, efflux+, inducible AmpC) and MB5890 (oprD+, efflux−, inducible AmpC) isogenic strains by electroporation.
(§3) The strain set was then used as a pair to determine the effect of metallo-β-lactamase inhibitors of Formula I on the MIC of imipenem and/or ceftazidime. A fixed concentration of antibiotic is included in standard microbroth MIC tests, usually at the CLSI breakpoint concentration, A fixed amount of a class A/C beta-lactamase inhibitor is also included to inhibit the resident Pseudomonas AmpC enzyme. A serial titration of the metallo-β-lactamase inhibitor was included and the concentration of metallo-β-lactamase inhibitor which restores susceptibility of the strain to the included antibiotic was recorded. That concentration of metallo-β-lactamase inhibitor was then compared between the two strains to determine the fold difference between the efflux+(MB9798) and efflux−(MI39799) strains, which indicates the extent to which the MBLi is subject to efflux.

[2] = target: VIM-1 (Pseudomonas aeruginosa (strain ATCC 15692 / DSM 22644 / CIP 104116 / JCM 14847 / LMG 12228 / 1C / PRS 101 / PAO1), UniProt A0A0F7KYQ8); assay: biochemical; settings: CCF2-FA fluorescence assay, 2 hours at 25° C.; read-out: VIM1 IC50
Method: (§4) The Class B enzyme activities were measured in the presence of the test inhibitor in a fluorescence assay against a commercially available substrate consisting of a cephalosporin core linking 7-hydroxycoumarin to fluorescein (CCF2-FA). The enzyme (NDM-1, IMP-1 or VIM-1) and the substrate were diluted in 100 mM KH2PO4 buffer (pH 7) containing 0.005% Tween-20 and 10 μM ZnSO4. In the assay, the final concentration of enzyme was 1 pM, 2 pM and 30 pM for NDM-1, IMP-1 and VIM-1, respectively, and the final concentration of CCF2-FA was 1.25 μM. The test inhibitor was dissolved in dimethylsulfoxide and diluted 1:50 in the assay, resulting in a final concentration range of 20 μM to 0.00063 μM. In a 384-well microplate, the test inhibitor was incubated with the metallo-β-lactamase enzyme and the substrate for 2 hours at 25° C. Fluorescence at 460 nm following excitation at 405 nm was measured. The IC50 value was determined from semi-logarithmic plots of enzyme inhibition versus inhibitor concentration, with a curve generated using a 4-parameter fit.

[3] = target: IMP-1 (Serratia marcescens, UniProt P52699); assay: biochemical; settings: CCF2-FA fluorescence assay, 2 hours at 25° C.; read-out: IMP1 IC50
IMP-1, sequence (P52699 whole entry, looked up, species assumed): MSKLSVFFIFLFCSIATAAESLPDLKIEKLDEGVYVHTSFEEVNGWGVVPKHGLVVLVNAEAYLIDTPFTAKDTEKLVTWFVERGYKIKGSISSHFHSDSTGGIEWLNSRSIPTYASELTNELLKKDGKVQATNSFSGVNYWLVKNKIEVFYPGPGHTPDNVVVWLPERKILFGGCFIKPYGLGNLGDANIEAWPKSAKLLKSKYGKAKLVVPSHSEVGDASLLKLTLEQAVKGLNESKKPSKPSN
Method: as §4

[4] = target: VIM-2 (Escherichia coli, UniProt Q5U7L7); assay: biochemical; settings: CCF2-FA fluorescence assay; read-out: VIM2 IC50
[5] = test system: Escherichia coli expressing NDM-1 (CLB30016); type: cell-based; settings: with imipenem 1 μg/ml; 95% inhibition of bacterial growth
Method: (§5) The bacterial strains tested included the clinical strains Escherichia coil expressing NDM-1 (CLB30005, CLB30016), Serratia marcescens expressing IMP-1 (CL5741), and Klebsiella pneumoniae expressing VIM-1 (H-LMA599644). Inhibitor activity was measured in the presence and absence of imipenem in a 384-well microplate.
(§6) The clinical strains CLB30016, CL5741 and IHMA599644 were grown on trypticase soy agar containing 5% sheep's blood. The bacteria on agar plates were incubated at 35° C. with humidity overnight. The following day, individual colonies from each clinical strain were picked and resuspended in 5 ml saline to attain an OD600 of […], for CLB30016, C15741 and IHMA599644, respectively. These were further diluted 1:100 into 1.1× CAMHB and used to inoculate the test wells as described below.
(§7) Imipenem in 10 mM 3-(N-morpholino)propanesulfonic acid (MOPS, pH 7) was stored in single use aliquots at −80° C. […] On the day of the assay, 4 μl of antibiotic was added to 45 μl of bacteria followed by 1 μl of test compound and mixed by pipetting and with an orbital shaker. The concentration of antibiotic used in the assay was 1 μg/ml. Microplates were covered and incubated at 35° C. for 22 hours to 24 hours. At the end of the incubation, absorbance was determined using a spectrophotometer. The synergistic concentration of MBLI was determined by identifying the lowest concentration of test compound in the presence of a given concentration of antibiotic that was required to inhibit 95% of the growth of the bacteria. The results for Examples 1-209 are reported in Table 1, expressed as the concentration of compound that potentiated the action of antibiotic (imipenem) affecting 95% inhibition of bacterial growth (MITC95).

[6] = test system: Serratia marcescens expressing IMP-1 (CL5741); type: cell-based; settings: with imipenem 1 μg/ml; 95% inhibition of bacterial growth
Method: as §5, §6, §7

[7] = test system: Klebsiella pneumoniae expressing VIM-1 (IHMA599644); type: cell-based; settings: with imipenem 1 μg/ml; 95% inhibition of bacterial growth
Method: as §5, §6, §7

[8] = test system: P. aeruginosa MB9799 (efflux-, IMP-1 plasmid); type: cell-based, Pseudomonas aeruginosa; settings: efflux − (MB9799) strain; imipenem at 2 μg/mL; in the presence of a class A, C, D serine β-lactamase inhibitor closely related to relebactam
Source text: as §1, §2, §3

[9] = target: NDM-1 (Klebsiella pneumoniae, UniProt C7C422); assay: biochemical; type: biochemical; settings: CCF2-FA fluorescence assay, 2 hours at 25° C.
NDM-1, sequence (C7C422 whole entry, looked up, species assumed): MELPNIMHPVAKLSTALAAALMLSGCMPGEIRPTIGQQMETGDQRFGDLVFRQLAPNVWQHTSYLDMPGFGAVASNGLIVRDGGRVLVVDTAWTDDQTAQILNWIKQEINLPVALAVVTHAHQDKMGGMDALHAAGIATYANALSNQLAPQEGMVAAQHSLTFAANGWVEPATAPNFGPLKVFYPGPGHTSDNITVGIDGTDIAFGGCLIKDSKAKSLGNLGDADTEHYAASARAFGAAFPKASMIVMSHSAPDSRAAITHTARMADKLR
Method: as §4

## NCC1CCN(c2ccc(S(=O)(=O)N[C@@H]3CCNC3)c(S(N)(=O)=O)c2-c2nn[nH]n2)CCN1 (stereo partly drawn) [Example 163]
[1]
  MB9798 MITC95 P. aeruginosa uM Efflux WT: 6.25 µM
  Efflux ratio: 2.00
[2]
  IC50: 0.74 nM
[3]
  IC50: 49 nM
[4]
  IC50: 52.9 nM
[5]
  CLB30016 E. coli MITC95 NDM: 0.39 µM
[6]
  CL5741 S. marcescens MITC95 IMP: 1.56 µM
[7]
  IHMA599644 K. pneumoniae MITC95 VIM: 1.56 µM
[8]
  MB9799 MITC95 P. aeruginosa uM Efflux Mutant: 3.13 µM

## NCCS(=O)(=O)c1ccc(N2CCCCC2)c(-c2nnn[nH]2)c1S(N)(=O)=O [Example 14]
[1]
  MB9798 MITC95 P. aeruginosa uM Efflux WT: 12.50 µM
  Efflux ratio: 16.00
[2]
  IC50: 0.73 nM
[3]
  IC50: 1.34 nM
[9]
  IC50: 3.94 nM
[5]
  CLB30016 E. coli MITC95 NDM: 0.78 µM
[6]
  CL5741 S. marcescens MITC95 IMP: 2.34 µM
[7]
  IHMA599644 K. pneumoniae MITC95 VIM: 2.34 µM
[8]
  MB9799 MITC95 P. aeruginosa uM Efflux Mutant: 0.78 µM

## N[C@@H]1CCCN(c2ccc(S(=O)(=O)C3CNC3)c(S(N)(=O)=O)c2-c2nnn[nH]2)C1 [Example 28, (R)-3-(3-aminopiperidin-1-yl)-6-(azetidin-3-ylsulfonyl)-2-(1H-tetrazol-5-yl)benzenesulfonamide]
[1]
  MB9798 MITC95 P. aeruginosa uM Efflux WT: 50.00 µM
  Efflux ratio: 8.00
[2]
  IC50: 37.2 nM
[3]
  IC50: 463 nM
[9]
  IC50: 61.9 nM
[5]
  CLB30016 E. coli MITC95 NDM: 0.78 µM
[6]
  CL5741 S. marcescens MITC95 IMP: 6.25 µM
[7]
  IHMA599644 K. pneumoniae MITC95 VIM: 1.56 µM
[8]
  MB9799 MITC95 P. aeruginosa uM Efflux Mutant: 6.25 µM

## NCCS(=O)(=O)c1ccc(N2CCOCC2)c(-c2nnn[nH]2)c1S(N)(=O)=O [Example 15]
[1]
  MB9798 MITC95 P. aeruginosa uM Efflux WT: 12.50 µM
  Efflux ratio: 8.00
[2]
  IC50: 2.51 nM
[3]
  IC50: 6.5 nM
[9]
  IC50: 11.5 nM
[5]
  CLB30016 E. coli MITC95 NDM: 1.56 µM
[6]
  CL5741 S. marcescens MITC95 IMP: 3.13 µM
[7]
  IHMA599644 K. pneumoniae MITC95 VIM: 3.13 µM
[8]
  MB9799 MITC95 P. aeruginosa uM Efflux Mutant: 1.56 µM

## NC1CCCCN(c2ccc(S(=O)(=O)C3CNC3)c(S(N)(=O)=O)c2-c2nnn[nH]2)C1 (stereo not drawn) [Example 33, 3-(3-aminoazepan-1-yl)-6-(azetidin-3-ylsulfonyl)-2-(1H-tetrazol-5-yl)benzenesulfonamide]
[1]
  MB9798 MITC95 P. aeruginosa uM Efflux WT: 25.00 µM
  Efflux ratio: 8.00
[2]
  IC50: 4.43 nM
[3]
  IC50: 137 nM
[9]
  IC50: 110 nM
[5]
  CLB30016 E. coli MITC95 NDM: 1.56 µM
[6]
  CL5741 S. marcescens MITC95 IMP: 3.13 µM
[7]
  IHMA599644 K. pneumoniae MITC95 VIM: 0.78 µM
[8]
  MB9799 MITC95 P. aeruginosa uM Efflux Mutant: 3.13 µM

## N[C@H]1CCCN(c2ccc(S(=O)(=O)C3CNC3)c(S(N)(=O)=O)c2-c2nnn[nH]2)C1 [Example 29, (S)-3-(3-aminopiperidin-1-yl)-6-(azetidin-3-ylsulfonyl)-2-(1H-tetrazol-5-yl)benzenesulfonamide]
[1]
  MB9798 MITC95 P. aeruginosa uM Efflux WT: 25.00 µM
  Efflux ratio: 8.00
[2]
  IC50: 9.45 nM
[3]
  IC50: 229 nM
[9]
  IC50: 86 nM
[5]
  CLB30016 E. coli MITC95 NDM: 1.56 µM
[6]
  CL5741 S. marcescens MITC95 IMP: 6.25 µM
[7]
  IHMA599644 K. pneumoniae MITC95 VIM: 0.78 µM
[8]
  MB9799 MITC95 P. aeruginosa uM Efflux Mutant: 3.13 µM

## NS(=O)(=O)c1ccc(N2CCC3(CCNCC3)C2=O)c(-c2nn[nH]n2)c1S(N)(=O)=O [Example 134, 4-(1-oxo-2,8-diazaspiro[4.5]decan-2-yl)-3-(2H-tetrazol-5-yl)benzene-1,2-disulfonamide]
[1]
  MB9798 MITC95 P. aeruginosa uM Efflux WT: 50.00 µM
  Efflux ratio: 8.00
[2]
  IC50: 62.9 nM
[3]
  IC50: 480 nM
[9]
  IC50: 182 nM
[5]
  CLB30016 E. coli MITC95 NDM: 6.25 µM
[6]
  CL5741 S. marcescens MITC95 IMP: 12.50 µM
[7]
  IHMA599644 K. pneumoniae MITC95 VIM: 6.25 µM
[8]
  MB9799 MITC95 P. aeruginosa uM Efflux Mutant: 6.25 µM

## NS(=O)(=O)c1c(S(=O)(=O)C2CNC2)ccc(N2CCC3(CCNCC3)CC2)c1-c1nnn[nH]1 [Example 30, 6-(azetidin-3-ylsulfonyl)-3-(3,9-diazaspiro[5.5]undecan-3-yl)-2-(1H-tetrazol-5-yl)benzenesulfonamide]
[1]
  MB9798 MITC95 P. aeruginosa uM Efflux WT: 1.56 µM
  Efflux ratio: 2.00
[2]
  IC50: 2.01 nM
[3]
  IC50: 5.2 nM
[9]
  IC50: 2.62 nM
[5]
  CLB30016 E. coli MITC95 NDM: 0.78 µM
[6]
  CL5741 S. marcescens MITC95 IMP: 1.56 µM
[7]
  IHMA599644 K. pneumoniae MITC95 VIM: 1.56 µM
[8]
  MB9799 MITC95 P. aeruginosa uM Efflux Mutant: 0.78 µM

## NC1CCCN(c2ccc(S(=O)(=O)C3CNC3)c(S(N)(=O)=O)c2-c2nnn[nH]2)CC1 (stereo not drawn) [Example 32, 3-(4-aminoazepan-1-yl)-6-(azetidin-3-ylsulfonyl)-2-(1H-tetrazol-5-yl)benzenesulfonamide]
[1]
  MB9798 MITC95 P. aeruginosa uM Efflux WT: 12.50 µM
  Efflux ratio: 4.00
[2]
  IC50: 2.14 nM
[3]
  IC50: 191 nM
[9]
  IC50: 122 nM
[5]
  CLB30016 E. coli MITC95 NDM: 6.25 µM
[6]
  CL5741 S. marcescens MITC95 IMP: 3.13 µM
[7]
  IHMA599644 K. pneumoniae MITC95 VIM: 1.56 µM
[8]
  MB9799 MITC95 P. aeruginosa uM Efflux Mutant: 3.13 µM
